Marks after values point to notes of the source that are not given here.
Key:
Assay type in all cases: in vivo, nude/nude mice
KYSE410 cells = experiment: KYSE410 tumor bearing mice, single agents and combination; conditions: for tumor growth inhibition: Day 22, Compound 478 100 mg/kg or RMC-4550 30 mg/kg p.o. daily; for Average Tumor Volume: Compound 478 100 mg/kg, RMC-4550 30 mg/kg
Experimental: (§1) Immunocompromised nude/nude mice are inoculated in the right hind flank with cells or patient derived tumor samples harboring a KRas G12C mutation. When tumor volumes reach between 200-400 mm^3 in size, the mice are divided into four groups of 5-12 mice each. The first group is administered vehicle only. […] The fourth group is administered the single agent dose of the KRas G12C inhibitor in combination with the single agent dose of the SHP-2 inhibitor. […] Tumor volumes are measured using a caliper every two-three days and tumor volumes are calculated by the formula: 0.5×[…].
(§2) 20 nude/nude mice per study were inoculated in the right hind limb with 5×10^6 SW1573 cells, KYSE410 cells or H358 cells.

H2122 cells = experiment: H2122 tumor bearing mice, single agents and combination; conditions: for tumor growth inhibition: Day 29, Compound 478 100 mg/kg or RMC-4550 30 mg/kg p.o. daily; for Average Tumor Volume: Compound 478 100 mg/kg, RMC-4550 30 mg/kg
Experimental: as §1
Similarly, 25 nude/nude mice were inoculated in the right hind limb with 5×10^6 H2122 cells.

H358 cells = experiment: H358 tumor bearing mice, single agents and combination
Experimental: as §1, §2

SW1573 cells = experiment: SW1573 tumor bearing mice, single agents and combination; conditions: for tumor growth inhibition: Day 22, Compound 478 100 mg/kg or RMC-4550 30 mg/kg p.o. daily; for Average Tumor Volume: Compound 478 100 mg/kg, RMC-4550 30 mg/kg
Experimental: as §1, §2

[1] = Study Day 0, p.o. daily, 5 mice
[2] = Study Day 0, p.o. daily, Compound 478 100 mg/kg, RMC-4550 30 mg/kg, 5 mice
[3] = Study Day 4, p.o. daily, Compound 478 100 mg/kg, RMC-4550 30 mg/kg
[4] = Study Day 6, p.o. daily, Compound 478 100 mg/kg, RMC-4550 30 mg/kg
[5] = Study Day 8, p.o. daily, Compound 478 100 mg/kg, RMC-4550 30 mg/kg
[6] = Study Day 12, p.o. daily, Compound 478 100 mg/kg, RMC-4550 30 mg/kg
[7] = Study Day 15, p.o. daily, Compound 478 100 mg/kg, RMC-4550 30 mg/kg
[8] = Study Day 18, p.o. daily, Compound 478 100 mg/kg, RMC-4550 30 mg/kg
[9] = Study Day 20, p.o. daily, Compound 478 100 mg/kg, RMC-4550 30 mg/kg
[10] = Study Day 22, p.o. daily, Compound 478 100 mg/kg, RMC-4550 30 mg/kg, RMC-4550 single agent: dosing was stopped after Day 22

With `C=C(F)C(=O)N1CCN(c2nc(OC[C@@H]3CCCN3C)nc3c2CCN(c2cccc4cccc(Cl)c24)C3)C[C@@H]1CC#N` [Compound 478] the tumor growth inhibition (KYSE410 cells) was 93%, the “Average Tumor Volume” value (KYSE410 cells; [1]) was 312 mm^3 and the “Average Tumor Volume” value (KYSE410 cells; Study Day 2, p.o. daily) was 320 mm^3. For the same compound, the “Average Tumor Volume” value (KYSE410 cells; Study Day 4, p.o. daily) was 302 mm^3, the “Average Tumor Volume” value (KYSE410 cells; Study Day 7, p.o. daily) was 281 mm^3 and the “Average Tumor Volume” value (KYSE410 cells; Study Day 9, p.o. daily) was 265 mm^3. For the same compound, the “Average Tumor Volume” value (KYSE410 cells; Study Day 11, p.o. daily) was 277 mm^3, the “Average Tumor Volume” value (KYSE410 cells; Study Day 14, p.o. daily) was 340 mm^3 and the “Average Tumor Volume” value (KYSE410 cells; Study Day 18, p.o. daily) was 349 mm^3. The “Average Tumor Volume” value (KYSE410 cells; Study Day 21, p.o. daily) was 384 mm^3, the “Average Tumor Volume” value (KYSE410 cells; Study Day 22, p.o. daily) was 359 mm^3 and the tumor growth inhibition (H2122 cells) was 93%. The “Average Tumor Volume” value (H2122 cells; Study Day 11, p.o. daily) was 382 mm^3, the “Average Tumor Volume” value (H2122 cells; Study Day 21, p.o. daily) was 430 mm^3 and the tumor regression (H358 cells; Day 22, Compound 478 100 mg/kg, alone or with RMC-4550 30 mg/kg, p.o. daily) was 68%. For the same compound, the “Average Tumor Volume” value (H358 cells; [2]) was 335 mm^3, the “Average Tumor Volume” value (H358 cells; [3]) was 277 mm^3 and the “Average Tumor Volume” value (H358 cells; [4]) was 244 mm^3. The “Average Tumor Volume” value (H358 cells; [5]) was 200 mm^3, the “Average Tumor Volume” value (H358 cells; [6]) was 156 mm^3 and the “Average Tumor Volume” value (H358 cells; [7]) was 133 mm^3. The “Average Tumor Volume” value (H358 cells; [8]) was 120 mm^3, the “Average Tumor Volume” value (H358 cells; [9]) was 113 mm^3 and the “Average Tumor Volume” value (H358 cells; [10]) was 109 mm^3. The “Average Tumor Volume” value (H358 cells; Study Day 25, p.o. daily, Compound 478 100 mg/kg, RMC-4550 30 mg/kg) was 90 mm^3, the “Average Tumor Volume” value (H358 cells; Study Day 27, p.o. daily, Compound 478 100 mg/kg, RMC-4550 30 mg/kg) was 92 mm^3 and the “Average Tumor Volume” value (H358 cells; Study Day 29, Compound 478 100 mg/kg, RMC-4550 30 mg/kg p.o.) was 81 mm^3. For the same compound, the “Average Tumor Volume” value (H358 cells; Study Day 32, Compound 478 100 mg/kg, RMC-4550 30 mg/kg p.o.) was 82 mm^3, the “Average Tumor Volume” value (H358 cells; Study Day 34, Compound 478 100 mg/kg, RMC-4550 30 mg/kg p.o.) was 84 mm^3 and the “Average Tumor Volume” value (H358 cells; Study Day 36, Compound 478 100 mg/kg, RMC-4550 30 mg/kg p.o.) was 81 mm^3. The “Average Tumor Volume” value (H358 cells; Study Day 39, Compound 478 100 mg/kg, RMC-4550 30 mg/kg p.o.) was 73 mm^3, the “Average Tumor Volume” value (H358 cells; Study Day 41, Compound 478 100 mg/kg, RMC-4550 30 mg/kg p.o.) was 58 mm^3 and the tumor growth inhibition (SW1573 cells) was 81%. For the same compound, the “Average Tumor Volume” value (SW1573 cells; [1]) was 335 mm^3, the “Average Tumor Volume” value (SW1573 cells; Study Day 2, p.o. daily) was 281 mm^3 and the “Average Tumor Volume” value (SW1573 cells; Study Day 4, p.o. daily) was 318 mm^3. The “Average Tumor Volume” value (SW1573 cells; Study Day 9, p.o. daily) was 336 mm^3, the “Average Tumor Volume” value (SW1573 cells; Study Day 14, p.o. daily) was 363 mm^3 and the “Average Tumor Volume” value (SW1573 cells; Study Day 21, p.o. daily) was 419 mm^3. For the same compound, the “Average Tumor Volume” value (SW1573 cells; Study Day 22, p.o. daily) was 433 mm^3.
With `Cc1nc(N2CCC3(CC2)CO[C@@H](C)[C@H]3N)c(CO)nc1-c1cccc(Cl)c1Cl` [RMC-4550] the tumor growth inhibition (KYSE410 cells) was 90%, the “Average Tumor Volume” value (KYSE410 cells; [1]) was 314 mm^3 and the “Average Tumor Volume” value (KYSE410 cells; Study Day 2, p.o. daily) was 311 mm^3. For the same compound, the “Average Tumor Volume” value (KYSE410 cells; Study Day 4, p.o. daily) was 316 mm^3, the “Average Tumor Volume” value (KYSE410 cells; Study Day 7, p.o. daily) was 299 mm^3 and the “Average Tumor Volume” value (KYSE410 cells; Study Day 9, p.o. daily) was 316 mm^3. The “Average Tumor Volume” value (KYSE410 cells; Study Day 11, p.o. daily) was 309 mm^3, the “Average Tumor Volume” value (KYSE410 cells; Study Day 14, p.o. daily) was 309 mm^3 and the “Average Tumor Volume” value (KYSE410 cells; Study Day 18, p.o. daily) was 303 mm^3. For the same compound, the “Average Tumor Volume” value (KYSE410 cells; Study Day 21, p.o. daily) was 372 mm^3, the “Average Tumor Volume” value (KYSE410 cells; Study Day 22, p.o. daily) was 377 mm^3 and the tumor growth inhibition (H2122 cells) was 47%. For the same compound, the “Average Tumor Volume” value (H2122 cells; [1]) was 350 mm^3, the “Average Tumor Volume” value (H2122 cells; Study Day 4, p.o. daily) was 515 mm^3 and the “Average Tumor Volume” value (H2122 cells; Study Day 6, p.o. daily) was 578 mm^3. The “Average Tumor Volume” value (H2122 cells; Study Day 8, p.o. daily) was 614 mm^3, the “Average Tumor Volume” value (H2122 cells; Study Day 11, p.o. daily) was 683 mm^3 and the “Average Tumor Volume” value (H2122 cells; Study Day 13, p.o. daily) was 750 mm^3. For the same compound, the “Average Tumor Volume” value (H2122 cells; Study Day 15, p.o. daily) was 856 mm^3, the “Average Tumor Volume” value (H2122 cells; Study Day 18, p.o. daily) was 880 mm^3 and the “Average Tumor Volume” value (H2122 cells; Study Day 21, p.o. daily) was 916 mm^3. The “Average Tumor Volume” value (H2122 cells; Study Day 24, p.o. daily) was 1026 mm^3, the “Average Tumor Volume” value (H2122 cells; Study Day 27, p.o. daily) was 1137 mm^3 and the “Average Tumor Volume” value (H2122 cells; Study Day 29, p.o. daily) was 1166 mm^3. For the same compound, the tumor growth inhibition (H358 cells; Day 22, RMC-4550 30 mg/kg p.o. daily) was 22%, the “Average Tumor Volume” value (H358 cells; [2]) was 333 mm^3 and the “Average Tumor Volume” value (H358 cells; [3]) was 336 mm^3. The “Average Tumor Volume” value (H358 cells; [4]) was 343 mm^3, the “Average Tumor Volume” value (H358 cells; [5]) was 372 mm^3 and the “Average Tumor Volume” value (H358 cells; [6]) was 388 mm^3. For the same compound, the “Average Tumor Volume” value (H358 cells; [7]) was 399 mm^3, the “Average Tumor Volume” value (H358 cells; [8]) was 422 mm^3 and the “Average Tumor Volume” value (H358 cells; [9]) was 454 mm^3. The “Average Tumor Volume” value (H358 cells; [10]) was 492‡ mm^3, the tumor growth inhibition (SW1573 cells) was 68% and the “Average Tumor Volume” value (SW1573 cells; [1]) was 336 mm^3. The “Average Tumor Volume” value (SW1573 cells; Study Day 2, p.o. daily) was 280 mm^3, the “Average Tumor Volume” value (SW1573 cells; Study Day 4, p.o. daily) was 286 mm^3 and the “Average Tumor Volume” value (SW1573 cells; Study Day 7, p.o. daily) was 336 mm^3. The “Average Tumor Volume” value (SW1573 cells; Study Day 9, p.o. daily) was 305 mm^3, the “Average Tumor Volume” value (SW1573 cells; Study Day 11, p.o. daily) was 326 mm^3 and the “Average Tumor Volume” value (SW1573 cells; Study Day 14, p.o. daily) was 418 mm^3. The “Average Tumor Volume” value (SW1573 cells; Study Day 16, p.o. daily) was 421 mm^3, the “Average Tumor Volume” value (SW1573 cells; Study Day 18, p.o. daily) was 375 mm^3 and the “Average Tumor Volume” value (SW1573 cells; Study Day 21, p.o. daily) was 392 mm^3. For the same compound, the “Average Tumor Volume” value (SW1573 cells; Study Day 22, p.o. daily) was 510 mm^3.

— patent US12377101B2, “Combination therapies” (Mirati Therapeutics, Inc., priority 2018, dated 2025)
